Test results taken from US20250228882A1, “ORALLY-BIOAVAILABLE NUCLEOSIDE ANALOGS” (Venatorx Pharmaceuticals, Inc., priority 2022, published 2025).
Like-named read-outs stand apart in the source and are kept apart here.

Assay: Bidirectional Caco-2 permeability assay
Assay type: in vitro ADME
Details: human
Method: The bidirectional permeability of compounds across the Caco-2 cell monolayer was assessed. The Caco-2 model is a widely used in vitro model for small intestinal absorption and potential for efflux. Cell culture. Caco-2 cells were grown in DMEM supplemented with 10% fetal bovine serum (FBS), 1% Penicillin-Streptomycin and 1% MEMNEAA. The cells were incubated at 37° C., 5% CO2/95% air and saturated humidity. After reaching 80-90% confluency, the cells were gently detached with trypsin. Cells at passage 39 were seeded on the 24-well BD insert system at the density of 8×10^4 cells/cm^2 and cultured for 19 days with medium changed every 2-3 days. Measure the transepithelial electrical resistance (TEER) value of each well. The wells can be used only when their TEER values are greater than 600 Ohms/cm^2.
Transport assay. After removing the cell culture medium from the 24-well insert plate, the cells were rinsed with warm transport buffer. Appropriate dosing and receiving solutions were applied to the donor and receiver chambers to initiate the transport assay in apical to basolateral (A to B) or basolateral to apical (B to A) directions (500 and 1300 μL for apical and basolateral wells, respectively). Duplicate wells in each direction were used for the test compound and control compound. The plate was incubated in CO2 incubator at 37° C., with 5% CO2/95% air and saturated humidity without shaking. The sample after 10-minute incubation was used as the To sample, and the sample after 90-minute incubation was used as the T90 sample. To and T90 samples were collected from the donor and receiver side of each well at the designed timepoint, mixed with the transport buffer and acetonitrile/MeOH (1:1, v/v) and the internal standard for LC/MS/MS analysis. All samples were vortexed and centrifuged at 4000 rpm at 4° C. for 15 minutes, diluted with pure water and stored at 4° C. before bioanalysis by LC/MS/MS.
Sample analysis. The concentrations of test compounds and control compounds in Caco-2 cells were quantitatively determined by LC/MS/MS method after protein precipitation.
Calculations. The apparent permeability (Papp, cm/s), efflux ratio (ER) and recovery parameters were calculated for Caco-2 drug transport assay using the following equations: […]
where VR is the solution volume in the receiver chamber (0.4 mL on the apical side, 1.2 mL on the basolateral side); Area is the surface area for the insert membrane, i.e., 0.3 cm^2 for the area of the monolayer; Time is incubation time, expressed in seconds, i. e., 5400 s (90 min) for the current experiment; Co is the initial concentration of test compound or peak area ratio of control compounds in the donor chamber (M); VD is the volume in the donor chambers (0.4 mL on the apical side, 1.2 mL on the basolateral side); CD and CR are the final concentrations of test compounds or peak area ratio of control compounds in donor and receiver chambers, respectively.
Compounds with Papp<1.0 are classified as low permeability, Papp between 1-10 are classified as medium permeability, and Papp>10 are classified as high permeability. An efflux ratio (ER)>2 indicates the compounds are potential substrates for intestinal cell efflux transporters.

[1] = Caco-2 monolayer, apical to basolateral, 90-minute incubation, read-out: Papp, A-B
[2] = Caco-2 monolayer, basolateral to apical, 90-minute incubation, read-out: Papp, B-A
[3] = Caco-2 monolayer, ER>2 indicates potential efflux substrate, read-out: ER (efflux ratio)

Compound	Papp A→B at 90 min (Caco-2) [×10⁻⁶ cm/s]	Papp B→A at 90 min (Caco-2) [×10⁻⁶ cm/s]	efflux ratio at 90 min (Caco-2)	Papp A→B at 90 min [1] [×10⁻⁶ cm/s]	Papp B→A at 90 min [2] [×10⁻⁶ cm/s]	efflux ratio at 90 min [3]
CC(C)NC(=O)Nc1ncnn2c([C@]3(C#N)O[C@H](COC(=O)CC4CCCCC4)[C@@H](OC(=O)[C@@H](N)C(C)(C)C)[C@H]3O)ccc12 [Compound 4, (2R,3S,4R,5R)-5-cyano-2-((2-cyclohexylacetoxy)methyl)-4-hydroxy-5-(4-(3-isopropylureido)pyrrolo[2,1-f][1,2,4]triazin-7-yl)tetrahydrofuran-3-yl (S)-2-amino-3,3-dimethylbutanoate]	2.5	3.48	1.37	–	–	–
COC(C)(C)C(=O)Nc1ncnn2c([C@]3(C#N)O[C@H](COC(=O)Cc4ccccc4)[C@@H](OC(=O)[C@@H](N)C(C)(C)C)[C@H]3O)ccc12 [Compound 5, (2R,3S,4R,5R)-5-cyano-4-hydroxy-5-(4-(2-methoxy-2-methylpropanamido)pyrrolo[2,1-f][1,2,4]triazin-7-yl)-2-((2-phenylacetoxy)methyl)tetrahydrofuran-3-yl (S)-2-amino-3,3-dimethylbutanoate]	–	–	–	17.7	16.5	0.93
CCOC(C)(C)C(=O)Nc1ncnn2c([C@]3(C#N)O[C@H](COC(=O)Cc4ccccc4)[C@@H](OC(=O)[C@@H](N)C(C)(C)C)[C@H]3O)ccc12 [Compound 6, (2R,3S,4R,5R)-5-cyano-5-(4-(2-ethoxy-2-methylpropanamido)pyrrolo[2,1-f][1,2,4]triazin-7-yl)-4-hydroxy-2-((2-phenylacetoxy)methyl)tetrahydrofuran-3-yl (S)-2-amino-3,3-dimethylbutanoate]	–	–	–	14	15.4	1.1
CCOC(C)(C)C(=O)Nc1ncnn2c([C@]3(C#N)O[C@H](COC(=O)CC4CCCCC4)[C@@H](OC(=O)[C@@H](N)C(C)(C)C)[C@H]3O)ccc12 [Compound 7, (2R,3S,4R,5R)-5-cyano-2-((2-cyclohexylacetoxy)methyl)-5-(4-(2-ethoxy-2-methylpropanamido)pyrrolo[2,1-f][1,2,4]triazin-7-yl)-4-hydroxytetrahydrofuran-3-yl (S)-2-amino-3,3-dimethylbutanoate]	7.82	8.41	1.07	–	–	–
CCC(CC)C(=O)Nc1ncnn2c([C@]3(C#N)O[C@H](COC(=O)Cc4ccccc4)[C@@H](OC(=O)[C@@H](N)C(C)(C)C)[C@H]3O)ccc12 [Compound 8, (2R,3S,4R,5R)-5-cyano-5-(4-(2-ethylbutanamido)pyrrolo[2,1-f][1,2,4]triazin-7-yl)-4-hydroxy-2-((2-phenylacetoxy)methyl)tetrahydrofuran-3-yl (S)-2-amino-3,3-dimethylbutanoate]	–	–	–	0.52	0.13	0.26
CC[C@H](C)C(=O)Nc1ncnn2c([C@]3(C#N)O[C@H](COC(=O)Cc4ccccc4)[C@@H](OC(=O)[C@@H](N)C(C)(C)C)[C@H]3O)ccc12 [Compound 10, (2R,3S,4R,5R)-5-cyano-4-hydroxy-5-(4-((S)-2-methylbutanamido)pyrrolo[2,1-f][1,2,4]triazin-7-yl)-2-((2-phenylacetoxy)methyl)tetrahydrofuran-3-yl (S)-2-amino-3,3-dimethylbutanoate]	–	–	–	0.59	0.1	0.17
CC[C@@H](C)C(=O)Nc1ncnn2c([C@]3(C#N)O[C@H](COC(=O)CC4CCCCC4)[C@@H](OC(=O)[C@@H](N)C(C)(C)C)[C@H]3O)ccc12 [Compound 12, (2R,3S,4R,5R)-5-cyano-2-((2-cyclohexylacetoxy)methyl)-4-hydroxy-5-(4-((R)-2-methylbutanamido)pyrrolo[2,1-f][1,2,4]triazin-7-yl)tetrahydrofuran-3-yl (S)-2-amino-3,3-dimethylbutanoate]	3.48	25.5	7.34	–	–	–
CC[C@H](C)C(=O)Nc1ncnn2c([C@]3(C#N)O[C@H](COC(=O)CC4CCCCC4)[C@@H](OC(=O)[C@@H](N)C(C)(C)C)[C@H]3O)ccc12 [Compound 13, (2R,3S,4R,5R)-5-cyano-2-((2-cyclohexylacetoxy)methyl)-4-hydroxy-5-(4-((S)-2-methylbutanamido)pyrrolo[2,1-f][1,2,4]triazin-7-yl)tetrahydrofuran-3-yl (S)-2-amino-3,3-dimethylbutanoate]	3.16	30.5	9.68	–	–	–
CC(C)[C@@H](C)C(=O)Nc1ncnn2c([C@]3(C#N)O[C@H](COC(=O)CC4CCCCC4)[C@@H](OC(=O)[C@@H](N)C(C)(C)C)[C@H]3O)ccc12 [Compound 14, (2R,3S,4R,5R)-5-cyano-2-((2-cyclohexylacetoxy)methyl)-5-(4-((R)-2,3-dimethylbutanamido)pyrrolo[2,1-f][1,2,4]triazin-7-yl)-4-hydroxytetrahydrofuran-3-yl (S)-2-amino-3,3-dimethylbutanoate]	1.96	1.38	0.7	–	–	–
CC(C)[C@H](C)C(=O)Nc1ncnn2c([C@]3(C#N)O[C@H](COC(=O)CC4CCCCC4)[C@@H](OC(=O)[C@@H](N)C(C)(C)C)[C@H]3O)ccc12 [Compound 15, (2R,3S,4R,5R)-5-cyano-2-((2-cyclohexylacetoxy)methyl)-5-(4-((S)-2,3-dimethylbutanamido)pyrrolo[2,1-f][1,2,4]triazin-7-yl)-4-hydroxytetrahydrofuran-3-yl (S)-2-amino-3,3-dimethylbutanoate]	1.93	1.76	0.91	–	–	–
CC(C)[C@@H](C)C(=O)Nc1ncnn2c([C@]3(C#N)O[C@H](COC(=O)Cc4ccccc4)[C@@H](OC(=O)[C@@H](N)C(C)(C)C)[C@H]3O)ccc12 [Compound 21, (2R,3S,4R,5R)-5-cyano-5-(4-((R)-2,3-dimethylbutanamido)pyrrolo[2,1-f][1,2,4]triazin-7-yl)-4-hydroxy-2-((2-phenylacetoxy)methyl)tetrahydrofuran-3-yl (S)-2-amino-3,3-dimethylbutanoate]	–	–	–	3.1	21	6.77
CC(C)[C@H](C)C(=O)Nc1ncnn2c([C@]3(C#N)O[C@H](COC(=O)Cc4ccccc4)[C@@H](OC(=O)[C@@H](N)C(C)(C)C)[C@H]3O)ccc12 [Compound 22, (2R,3S,4R,5R)-5-cyano-5-(4-((S)-2,3-dimethylbutanamido)pyrrolo[2,1-f][1,2,4]triazin-7-yl)-4-hydroxy-2-((2-phenylacetoxy)methyl)tetrahydrofuran-3-yl (S)-2-amino-3,3-dimethylbutanoate]	–	–	–	2.79	6.1	2.19
CC(C)NC(=O)Nc1ncnn2c([C@]3(C#N)O[C@H](COC(=O)Cc4ccccc4)[C@@H](OC(=O)[C@@H](N)C(C)(C)C)[C@H]3O)ccc12 [Compound 29, (2R,3S,4R,5R)-5-cyano-4-hydroxy-5-(4-(3-isopropylureido)pyrrolo[2,1-f][1,2,4]triazin-7-yl)-2-((2-phenylacetoxy)methyl)tetrahydrofuran-3-yl (S)-2-amino-3,3-dimethylbutanoate]	–	–	–	1.69	19.6	11.6
CC(=O)OCOC(=O)Nc1ncnn2c([C@]3(C#N)O[C@H](COC(=O)Cc4ccccc4)[C@@H](OC(=O)[C@@H](N)C(C)(C)C)[C@H]3O)ccc12 [Compound 30, (2R,3S,4R,5R)-5-(4-(((acetoxymethoxy)carbonyl)amino)pyrrolo[2,1-f][1,2,4]triazin-7-yl)-5-cyano-4-hydroxy-2-((2-phenylacetoxy)methyl)tetrahydrofuran-3-yl (S)-2-amino-3,3-dimethylbutanoate]	–	–	–	0.09	3.11	34.6
CC(C)(C)[C@H](N)C(=O)OC[C@H]1O[C@@](C#N)(c2ccc3c(N)ncnn23)[C@H](O)[C@@H]1OC(=O)CC1CCCCC1 [Compound 32, ((2R,3S,4R,5R)-5-(4-aminopyrrolo[2,1-f][1,2,4]triazin-7-yl)-5-cyano-3-(2-cyclohexylacetoxy)-4-hydroxytetrahydrofuran-2-yl)methyl (S)-2-amino-3,3-dimethylbutanoate]	15.4	20.7	1.34	–	–	–
